According to patent US9896423B2, “Deuterium substituted 1-[2-(2,4-dimethyl-phenylsulfanyl)-phenyl]piperazine compound or derivatives thereof, and pharmaceutical composition and use thereof” (Jiangsu Jibeier Pharmaceutical Co. Ltd., priority 2014, dated 2018):
Where “and” joins values, the source holds several entries; their conditions need not be identical. Equal values may be shown once. Read-outs that look alike come from different tables or passages of the source.

Experiments:
Male ICR mice = assay: Mice tail suspension test; format: in vivo
Description: The following method is used for testing the antidepression effect of the compound of the present application. ICR mice or SD rats, gavaged for two successive weeks, were subjected to mice swimming test, mice tail suspension test and rats swimming test. See below for details of the tests and results.
The animals, medicaments, calculation of dosages to the mice, preparation of drug solution and apparatus are the same as those in the mice swimming test.
The medicaments were correspondingly administered by gavage, once a day, to the animals in the groups for 14 successive days, with the amount of 0.2 ml per 10 g of body weight. The mice were subjected to tail suspension one hour later after the last oral administration. The suspension continued for 6 min.
The data was given as “average±standard deviation” (x±s). One-way analysis of variance (ANOVA) was used for data difference statistics. Differences among the groups were determined by P<0.05.

[1] = Pharmacokinetic test in rats, gavage administration; format: in vivo, SD rats; details: for bioavailability: read-out: F % (absolute bioavailability), Mean ± SD;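 on AUC0-t (area under the plasma concentration-time curve from zero to the last sampling time): plasma area under the curve AUC0-1 in μg·h/L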
Experimental: The preferred compound of the present disclosure was assessed in rats for its pharmacokinetic profile.
SD rats, male and female, weighing 150 to 250 g
Mobile phase: 10 mM ammonium formate aqueous solution:methanol=15:85
The ionization source was electrospray ionization source. The detection mode was positive mode. Multiple reaction monitoring (MRM) was used as the scanning mode. The ion reaction for the quantitative analysis was the following: m/z was 305.2\150.0 for XX, and 256.1\167.1 for diphenhydramine (the internal standard).
XX or YY was orally administered with single dose of 20 mg/kg to six SD rats, one half of which were male and the other half was female. XX or YY was dissolved in 10% hydroxypropyl-β-cyclodextrin. […]
After the blood collection, the tubes were immediately gently turned upside down at least five times to ensure sufficient mixing, and placed on ice. Heparin was added for anticoagulation. The samples were centrifuged at 8000 rpm for 5 min to separate serum from erythrocyte. The serum was transferred with a pipettor to 2 mL polypropylene (PP) tubes, which were marked with the name of the compound and the time points, and stored in a refrigerator at −40° C. before LC-MS analysis. Samples with high concentrations were diluted with rat blank plasma.
2.5 μL of Meth-H2O and 5 μL of the internal standard solution (20 ng/mL, IS) were added to 50 μL of the plasma. Subsequently, 150 μL of methanol was added to the mixture to precipitate protein and the samples were then centrifuged at 13000 rpm for 5 min. The upper organic phase was taken out, filtrated with a 0.22 μM microporous membrane, and 2 μL of the sample was injected for the LC-MS analysis.

[2] = rats, oral 20 mg/kg, individual rats 1-6, 20 mg/kg

Cc1ccc(Sc2ccccc2N2CCNCC2)c(C)c1 [YY, 1-[2-(2,4-dimethyl-phenylsulfanyl)-phenyl]piperazine]
effect on length of time that the tail-suspended mice stopped moving vs blank control (Male ICR mice; 3 mg/kg gavage, two successive weeks): did not shorten
Duration without Move within 6 min (Male ICR mice; mice tail suspension, gavage 14 days, 3 mg/kg, n = 10, x ± s): 284.9 ± 51.2 s
Concentrations in Plasma of Rats after Oral Administration ([1]; 20 mg/kg oral, 10 min (Table 5: 0.167 h) after administration, individual rats 1-6): 17.9 ng/mL and 9.42 ng/mL and 28.1 ng/mL and 14.3 ng/mL and 38.4 ng/mL and 6.11 ng/mL
Concentrations in Plasma of Rats after Oral Administration ([1]; 20 mg/kg oral, 0.5 h, individual rats 1-6): 86.5 ng/mL and 38.1 ng/mL and 52.3 ng/mL and 49.7 ng/mL
Concentrations in Plasma of Rats after Oral Administration ([1]; 20 mg/kg oral, 1 h, individual rats 1-6): 123 ng/mL and 65.5 ng/mL and 77.4 ng/mL and 81.1 ng/mL and 93.2 ng/mL and 55.6 ng/mL
Concentrations in Plasma of Rats after Oral Administration ([1]; 20 mg/kg oral, 1.5 h, individual rats 1-6): 154 ng/mL and 85.2 ng/mL and 82.9 ng/mL and 89.2 ng/mL and 73.2 ng/mL and 54.9 ng/mL
Concentrations in Plasma of Rats after Oral Administration ([1]; 20 mg/kg oral, 2 h, individual rats 1-6): 182 ng/mL and 68.3 ng/mL and 91.8 ng/mL and 81.9 ng/mL and 72 ng/mL and 56.4 ng/mL
Concentrations in Plasma of Rats after Oral Administration ([1]; 20 mg/kg oral, 3 h, individual rats 1-6): 120 ng/mL and 48.2 ng/mL and 58.3 ng/mL and 55.9 ng/mL and 42.9 ng/mL and 34.2 ng/mL
Concentrations in Plasma of Rats after Oral Administration ([1]; 20 mg/kg oral, 4 h, individual rats 1-6): 93.6 ng/mL and 46.9 ng/mL and 52.9 ng/mL and 55.2 ng/mL and 42.1 ng/mL and 29.9 ng/mL
Concentrations in Plasma of Rats after Oral Administration ([1]; 20 mg/kg oral, 6 h, individual rats 1-6): 57.4 ng/mL and 37.7 ng/mL and 36.7 ng/mL and 33.5 ng/mL and 30.5 ng/mL and 22.4 ng/mL
Concentrations in Plasma of Rats after Oral Administration ([1]; 20 mg/kg oral, 8 h, individual rats 1-6): 27.5 ng/mL and 16.7 ng/mL and 17.7 ng/mL and 16.3 ng/mL and 18.8 ng/mL and 11.3 ng/mL
Concentrations in Plasma of Rats after Oral Administration ([1]; 20 mg/kg oral, 10 h, individual rats 1-6): 14.5 ng/mL and 8.39 ng/mL and 10.9 ng/mL and 8.32 ng/mL and 9.4 ng/mL and 7.24 ng/mL
Concentrations in Plasma of Rats after Oral Administration ([1]; 20 mg/kg oral, 12 h, individual rats 1-6): 7.3 ng/mL and 4.87 ng/mL and 4.29 ng/mL and 7.01 ng/mL and 4.1 ng/mL and 3.17 ng/mL
Concentrations in Plasma of Rats after Oral Administration ([1]; 20 mg/kg oral, 14 h, individual rats 1-6): 7.19 ng/mL and 2.5 ng/mL and 3.69 ng/mL and 4.35 ng/mL and 3.79 ng/mL and 2.95 ng/mL
Concentrations in Plasma of Rats after Oral Administration ([1]; 20 mg/kg oral, 24 h, individual rats 1-6): 0.728 ng/mL and 0.431 ng/mL and 0.716 ng/mL and 0.374 ng/mL and 0.394 ng/mL and 1.21 ng/mL
MRT inf ([1]; both sexes, SD, rat, plasma, po, 20 mg/kg, rats, oral 20 mg/kg, individual rats 1-6, read-out: MRT0-∞): 4.49 h
half-life ([1]; both sexes, SD, rat, plasma, po, 20 mg/kg, rats, oral 20 mg/kg, individual rats 1-6, read-out: t1/2 (converted)): 3.05 h
AUC(0-t) ([1]; both sexes, SD, rat, plasma, po, 20 mg/kg, rats, oral 20 mg/kg, n = 6, read-out: AUC0-1, Mean ± SD): 489 ± 180 ng·h/mL
AUC(0-inf) ([1]; both sexes, SD, rat, plasma, po, 20 mg/kg, rats, oral 20 mg/kg, n = 6, read-out: AUC0-∞, Mean ± SD): 491 ± 181 ng·h/mL
Cmax ([1]; both sexes, SD, rat, plasma, po, 20 mg/kg, rats, oral 20 mg/kg, n = 6, read-out: Cmax, Mean ± SD): 99.6 ± 42.6 ng/mL
MRT inf ([1]; both sexes, SD, rat, plasma, po, 20 mg/kg, rats, oral 20 mg/kg, n = 6, read-out: MRT0-∞, Mean ± SD): 4.75 ± 0.31 h
half-life ([1]; both sexes, SD, rat, plasma, po, 20 mg/kg, rats, oral 20 mg/kg, n = 6, read-out: t1/2, Mean ± SD (converted)): 2.96 ± 0.43 h
concentration at 10 min ([1]; both sexes, Sprague-Dawley, rat, plasma, oral, 20 mg/kg, 20 mg/kg oral, 10 min (Table 5: 0.167 h), mean of 6 rats, read-out: Concentrations in Plasma of Rats after Oral Administration, Mean ± SD): 19 ± 12.2 ng/mL
concentration at 0.5 h ([1]; both sexes, Sprague-Dawley, rat, plasma, oral, 20 mg/kg, 20 mg/kg oral, 0.5 h, mean of 6 rats, read-out: Concentrations in Plasma of Rats after Oral Administration, Mean ± SD): 54.9 ± 16.8 ng/mL
concentration at 1 h ([1]; both sexes, Sprague-Dawley, rat, plasma, oral, 20 mg/kg, 20 mg/kg oral, 1 h, mean of 6 rats, read-out: Concentrations in Plasma of Rats after Oral Administration, Mean ± SD): 82.6 ± 23.6 ng/mL
concentration at 1.5 h ([1]; both sexes, Sprague-Dawley, rat, plasma, oral, 20 mg/kg, 20 mg/kg oral, 1.5 h, mean of 6 rats, read-out: Concentrations in Plasma of Rats after Oral Administration, Mean ± SD): 89.9 ± 33.7 ng/mL
concentration at 2 h ([1]; both sexes, Sprague-Dawley, rat, plasma, oral, 20 mg/kg, 20 mg/kg oral, 2 h, mean of 6 rats, read-out: Concentrations in Plasma of Rats after Oral Administration, Mean ± SD): 92.1 ± 45.7 ng/mL
concentration at 3 h ([1]; both sexes, Sprague-Dawley, rat, plasma, oral, 20 mg/kg, 20 mg/kg oral, 3 h, mean of 6 rats, read-out: Concentrations in Plasma of Rats after Oral Administration, Mean ± SD): 59.9 ± 30.7 ng/mL
concentration at 4 h ([1]; both sexes, Sprague-Dawley, rat, plasma, oral, 20 mg/kg, 20 mg/kg oral, 4 h, mean of 6 rats, read-out: Concentrations in Plasma of Rats after Oral Administration, Mean ± SD): 53.4 ± 21.6 ng/mL
concentration at 6 h ([1]; both sexes, Sprague-Dawley, rat, plasma, oral, 20 mg/kg, 20 mg/kg oral, 6 h, mean of 6 rats, read-out: Concentrations in Plasma of Rats after Oral Administration, Mean ± SD): 36.4 ± 11.7 ng/mL
concentration at 8 h ([1]; both sexes, Sprague-Dawley, rat, plasma, oral, 20 mg/kg, 20 mg/kg oral, 8 h, mean of 6 rats, read-out: Concentrations in Plasma of Rats after Oral Administration, Mean ± SD): 18.1 ± 5.3 ng/mL
concentration at 10 h ([1]; both sexes, Sprague-Dawley, rat, plasma, oral, 20 mg/kg, 20 mg/kg oral, 10 h, mean of 6 rats, read-out: Concentrations in Plasma of Rats after Oral Administration, Mean ± SD): 9.79 ± 2.62 ng/mL
concentration at 12 h ([1]; both sexes, Sprague-Dawley, rat, plasma, oral, 20 mg/kg, 20 mg/kg oral, 12 h, mean of 6 rats, read-out: Concentrations in Plasma of Rats after Oral Administration, Mean ± SD): 5.12 ± 1.67 ng/mL
concentration at 14 h ([1]; both sexes, Sprague-Dawley, rat, plasma, oral, 20 mg/kg, 20 mg/kg oral, 14 h, mean of 6 rats, read-out: Concentrations in Plasma of Rats after Oral Administration, Mean ± SD): 4.08 ± 1.66 ng/mL
concentration at 24 h ([1]; both sexes, Sprague-Dawley, rat, plasma, oral, 20 mg/kg, 20 mg/kg oral, 24 h, mean of 6 rats, read-out: Concentrations in Plasma of Rats after Oral Administration, Mean ± SD): 0.64 ± 0.32 ng/mL
bioavailability ([1]; both sexes, Sprague-Dawley, rat, plasma, oral, 20 mg/kg, rats, oral 20 mg/kg vs iv 2 mg/kg, n = 6): 7.51 ± 2.77%
AUC(0-t) ([1]; both sexes, Sprague-Dawley, rat, plasma, po, 20 mg/kg, gavage administration of 20 mg/kg, rats, read-out: AUC0-t in the rats' plasma): 489 ± 180 ng·h/mL
bioavailability ([1]; both sexes, Sprague-Dawley, rat, plasma, po, 20 mg/kg, rats, oral 20 mg/kg vs iv 2 mg/kg, n = 6): 7.51 ± 2.77%
F % ([1]; rats, oral 20 mg/kg vs iv 2 mg/kg, individual rats 1-6): 12.83% and 6.36% and 7.40% and 7.17% and 6.55% and 4.75%
AUC0-t (area under the plasma concentration-time curve from zero to the last sampling time) [1, 2]: 836.1 ng·h/mL and 415.8 ng·h/mL and 480.4 ng·h/mL and 467.8 ng·h/mL and 427.0 ng·h/mL and 309.2 ng·h/mL
AUC0-∞ [1, 2]: 839.3 ng·h/mL and 416.2 ng·h/mL and 484 ng·h/mL and 469.3 ng·h/mL and 428.7 ng·h/mL and 310.6 ng·h/mL
Cmax [1, 2]: 182.0 ng/mL and 85.2 ng/mL and 91.8 ng/mL and 89.2 ng/mL and 93.2 ng/mL and 56.4 ng/mL
MRT0-∞ [1, 2]: 4.65 h and 4.73 h and 4.67 h and 4.60 h and 5.35 h
t1/2 [1, 2]: 2.20 h and 3.50 h and 2.83 h and 3.06 h and 3.10 h
